{
  "source": "patent US20110201497A1",
  "about": "“Composition Comprising A Pesticide and an Alkoxylate of Iso-Heptadecylamine” (BASF SE, priority 2010, published 2011)",
  "key": {"winter wheat": {"test_system": "winter wheat", "assay": "Greenhouse test, herbicidal activity of glyphosate SL with amine alkoxylate against winter wheat", "type": "in vivo, winter wheat (cv. Cubus)", "settings": "scored vs untreated control", "protocol": "(§1) To carry out greenhouse tests, the winter wheats (cv. Cubus) or soybeans (cv. Oxford) were sown or potted in loamy sand at a sowing depth of 1-2 cm. As soon as the plants had reached a height of 10 to 25 cm (i.e. approx. 10 to 21 days after sowing), the spray mixtures were applied to the plants in a spray cabinet.\n(§2) A concentrated formulation comprising glyphosate isoproylammonium dissolved in water and amine alkoxylate of example 2 were diluted with fully demineralized water and were applied at a water application rate of 375 l/ha ([…]). The temperatures during the experimental period, which lasted for 3 to 4 weeks, were between 18 and 35° C. During this time, the test plants received optimal irrigation, the nutrient supply being effected via the irrigation water.\n(§3) The herbicidal activity was assessed by scoring the treated plants in comparison with the untreated control plants (table 1). The assessment scale goes from 0% to 100% activity. 100% activity means complete dying at least of the aerial plant parts. In contrast, 0% activity means that no differences were observed between treated and untreated plants. The results in table 1 and 2 confirm the increased activity of the active substance by addition of the amine alkoxylate."}, "soybean": {"test_system": "soybean", "assay": "Greenhouse test, herbicidal activity of glyphosate SL with amine alkoxylate against soybean", "type": "in vivo, soybean (cv. Oxford)", "settings": "scored vs untreated control", "protocol": "as §1, §2, §3"}, "[1]": {"settings": "glyphosate 140 g/ha, amine alkoxylate (where present) 300 g/ha, 375 l/ha water"}, "[2]": {"settings": "glyphosate 280 g/ha, with amine alkoxylate where named"}},
  "data": [
    {"smiles": "O=C(O)CNCP(=O)(O)O", "note": "[glyphosate]", "values": [
      {"measurement": "Activity [%] after 14 days", "setting": "winter wheat; [1]", "value": 64, "unit": "%"},
      {"measurement": "Activity [%] after 21 days", "setting": "winter wheat; [1]", "value": 73, "unit": "%"},
      {"measurement": "Activity [%] after 28 days", "setting": "winter wheat; [1]", "value": 73, "unit": "%"},
      {"measurement": "Activity [%] after 14 days", "setting": "winter wheat; [2]", "value": 71, "unit": "%"},
      {"measurement": "Activity [%] after 21 days", "setting": "winter wheat; [2]", "value": 81, "unit": "%"},
      {"measurement": "Activity [%] after 28 days", "setting": "winter wheat; [2]", "value": 81, "unit": "%"},
      {"measurement": "Activity [%] after 14 days", "setting": "soybean; [1]", "value": 29, "unit": "%"},
      {"measurement": "Activity [%] after 21 days", "setting": "soybean; [1]", "value": 38, "unit": "%"},
      {"measurement": "Activity [%] after 28 days", "setting": "soybean; [1]", "value": 38, "unit": "%"},
      {"measurement": "Activity [%] after 14 days", "setting": "soybean; [2]", "value": 36, "unit": "%"},
      {"measurement": "Activity [%] after 21 days", "setting": "soybean; [2]", "value": 40, "unit": "%"},
      {"measurement": "Activity [%] after 28 days", "setting": "soybean; [2]", "value": 40, "unit": "%"}
    ]}
  ]
}
